This experiment deals with human PDE10A2 (Homo sapiens (Human), UniProt Q9Y233). Nature of the experiment: PDE10 fluorescence polarization (IMAP FP) inhibition assay. The conditions noted are these: FAM-labeled cAMP substrate 50 nM, room temperature, apparent inhibition constant; read-out: PDE10A Ki. Type of experiment: biochemical. The method, then: The activity of the compounds in accordance with the present invention as PDE10 inhibitors may be readily determined without undue experimentation using a fluorescence polarization (FP) methodology that is well known in the art (Huang, W., et al., J. Biomol Screen, 2002, 7: 215).
Chain of human PDE10A2 (Q9Y233 267-1055): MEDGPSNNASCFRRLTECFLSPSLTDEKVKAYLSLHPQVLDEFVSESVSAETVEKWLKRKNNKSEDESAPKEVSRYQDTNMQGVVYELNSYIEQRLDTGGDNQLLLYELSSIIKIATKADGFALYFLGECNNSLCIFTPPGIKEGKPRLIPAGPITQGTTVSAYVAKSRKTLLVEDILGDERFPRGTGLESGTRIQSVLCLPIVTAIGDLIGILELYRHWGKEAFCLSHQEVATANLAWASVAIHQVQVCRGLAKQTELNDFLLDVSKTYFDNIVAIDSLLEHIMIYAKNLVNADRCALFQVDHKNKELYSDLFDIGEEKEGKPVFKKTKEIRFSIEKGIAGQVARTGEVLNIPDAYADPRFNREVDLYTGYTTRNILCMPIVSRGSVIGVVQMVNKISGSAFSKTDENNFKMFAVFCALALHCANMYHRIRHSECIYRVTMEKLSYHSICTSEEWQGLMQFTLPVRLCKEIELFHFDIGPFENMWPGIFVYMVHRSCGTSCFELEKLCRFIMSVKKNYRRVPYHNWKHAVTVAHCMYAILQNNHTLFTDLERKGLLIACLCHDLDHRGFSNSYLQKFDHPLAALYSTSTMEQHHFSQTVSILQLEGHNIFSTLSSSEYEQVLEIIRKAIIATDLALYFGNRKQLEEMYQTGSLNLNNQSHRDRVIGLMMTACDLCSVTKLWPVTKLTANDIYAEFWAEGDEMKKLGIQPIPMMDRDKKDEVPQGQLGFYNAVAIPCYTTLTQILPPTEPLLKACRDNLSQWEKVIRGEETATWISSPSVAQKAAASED
In a typical experiment the PDE10 inhibitory activity of the compounds of the present invention was determined in accordance with the following experimental method. PDE10A2 was amplified from human fetal brain cDNA (Clontech, Mountain View, Calif.) using a forward primer corresponding to nucleotides 56-77 of human PDE10A2 (Accession No. AF127480, Genbank Identifier 4894716), containing a Kozak consensus sequence, and a reverse primer corresponding to nucleotides 2406-2413 of human PDE10A2 (Accession No. AF127480, Genbank Identifier 4894716). Amplification with Easy-A polymerase (Stratagene, La Jolla, Calif.) was 95° C. for 2 minutes followed by thirty three cycles of 95° C. for 40 seconds, 55° C. for 30 seconds, and 72° C. for 2 minutes 48 seconds. Final extension was 72° C. for 7 minutes. The PCR product was TA cloned into pcDNA3.2-TOPO (Invitrogen, Carlsbad, Calif.) according to standard protocol. AD293 cells with 70-80% confluency were transiently transfected with human PDE10A2/pcDNA3.2-TOPO using Lipofectamine 2000 according to manufacturer specifications (Invitrogen, Carlsbad, Calif.). Cells were harvested 48 hours post-transfection and lysed by sonication (setting 3, 10×5 sec pulses) in a buffer containing 20 mM HEPES, 1 mM EDTA and protease inhibitor cocktail (Roche). Lysate was collected by centrifugation at 75,000×g for 20 minutes. Supernatant containing the cytoplasmic fraction was used for evaluation of PDE10A2 activity. The fluorescence polarization assay for cyclic nucleotide phosphodiesterases was performed using an IMAP® FP kit supplied by Molecular Devices, Sunnyvale, Calif. (product #R8139). IMAP® technology has been applied previously to phosphodiesterase assays (Huang, W., et al., J. Biomol Screen, 2002, 7: 215). Assays were performed at room temperature in 384-well microtiter plates with an incubation volume of 20.2 μL. Solutions of test compounds were prepared in DMSO and serially diluted with DMSO to yield 8 μL of each of 10 solutions differing by 3-fold in concentration, at 32 serial dilutions per plate. 100% inhibition is determined using a known PDE10 inhibitor, which can be any compound that is present at 5,000 times its Ki value in the assay described as follows, such as papaverine (see Siuciak, et al. Neuropharmacology (2006) 51:386-396; Becker, et al. Behav Brain Res (2008) 186(2):155-60; Threlfell, et al., J Pharmacol Exp Ther (2009) 328(3):785-795), 2-{4-[pyridin-4-yl-1-(2,2,2-trifluoroethyl)-1H-pyrazol-3-yl]phenoxymethyl}quinoline succinic acid or 2-[4-(1-methyl-4-pyridin-4-yl-1H-pyrazol-3-yl)-phenoxymethyl]quinoline succinic acid (see Schmidt, et al. J Pharmacol Exp Ther (2008) 325:681-690; Threlfell, et al., J Pharmacol Exp Ther (2009) 328(3): 785-795). 0% of inhibition is determined by using DMSO (1% final concentrations).
A Labcyte Echo 555 (Labcyte, Sunnyvale, Calif.) is used to dispense 200 nL from each well of the titration plate to the 384 well assay plate. A solution of enzyme (1/1600 dilution from aliquots; sufficient to produce 20% substrate conversion) and a separate solution of FAM-labeled cAMP PDE from Molecular Devices (product #R7506), at a final concentration of 50 nM are made in the assay buffer (10 mM Tris HCl, pH 7.2, 10 mM MgCl2, 0.05% NaN3 0.01% Tween-20, and 1 mM DTT). The enzyme and the substrate are then added to the assay plates in two consecutive additions of 10 μL, and then shaken to mix. The reaction is allowed to proceed at room temperature for 30 minutes. A binding solution is then made from the kit components, comprised of 80% Solution A, 20% Solution B and binding reagent at a volume of 1/600 the total binding solution. […]

For the compound `Cc1ccc(C(=O)N2CCc3nc(-c4ccc(Cl)nc4)nc(OC(C)C)c3C2)cn1` [Compound 1-14, [2-(6-chloropyridin-3-yl)-4-(propan-2-yloxy)-7,8-dihydropyrido[4,3-d]pyrimidin-6(5H)-yl](6-methylpyridin-3-yl)methanone], the Ki came out at 9.9 nM.

As for `CC(C)Oc1nc(-c2ccc(Cl)nc2)nc2c1CN(C(=O)Nc1cnn(C)c1)CC2` [Compound K-2, 2-(6-chloropyridin-3-yl)-N-(1-methyl-1H-pyrazol-4-yl)-4-(propan-2-yloxy)-7,8-dihydropyrido-[4,3-d]pyrimidine-6(5H)-carboxamide], the Ki is 0.9 nM.

As for `CC(C)Oc1nc(-c2ccc(Cl)nc2)nc2c1CN(S(=O)(=O)c1cccnc1)CC2` [Compound 1-17, 2-(6-chloropyridin-3-yl)-4-(propan-2-yloxy)-6-(pyridin-3-ylsulfonyl)-5,6,7,8-tetrahydropyrido[4,3-d]pyrimidine], the Ki turned out to be 0.63 nM.

`CC(C)Oc1nc(-c2cccnc2)nc2c1CN(C(=O)Nc1ccc3ccn(C)c3c1)CC2` [Compound 1-8, 4-isopropoxy-N-(1-methyl-1H-indol-6-yl)-2-pyridin-3-yl-7,8-dihydropyrido[4,3-d]pyrimidine-6(5H)-carboxamide]: the Ki is 9.2 nM.

For the compound `CC(C)Oc1nc(-c2cccnc2)nc2c1CN(c1nc3ccccc3o1)CC2` [Compound 1-18, 6-(1,3-benzoxazol-2-yl)-4-(propan-2-yloxy)-2-(pyridin-3-yl)-5,6,7,8-tetrahydropyrido[4,3-d]pyrimidine], the Ki is 15.9 nM.

In the case of `Cc1ccc(NC(=O)N2CCc3nc(-c4ccc(Cl)nc4)nc(OC(C)C)c3C2)cn1` [Compound 1-11, 2-(6-chloropyridin-3-yl)-N-(6-methylpyridin-3-yl)-4-(propan-2-yloxy)-7,8-dihydropyrido[4,3-d]pyrimidine-6(5H)-carboxamide], the Ki is 0.6 nM.

Consider `CCc1cccc(NC(=O)N2CCc3nc(-c4cccnc4)nc(OC4CCN(C)CC4)c3C2)c1` [Compound 1-7, N-(3-ethylphenyl)-4-[(1-methylpiperidin-4-yl)oxy]-2-pyridin-3-yl-7,8-dihydropyrido[4,3-d]pyrimidine-6(5H)-carboxamide], for which the Ki was 14 nM.

As to `CC(C)Oc1nc(-c2ccc(Cl)nc2)nc2c1CN(C(=O)c1cn(C)cn1)CC2` [Compound 1-19, [2-(6-chloropyridin-3-yl)-4-(propan-2-yloxy)-7,8-dihydropyrido[4,3-]pyrimidin-6(5H)-yl](1-methyl-1H-imidazol-4-yl)methanone], the Ki stood at 4.55 nM.

Regarding `COCCOc1nc(-c2ccc(Cl)nc2)nc2c1CN(C(=O)Oc1ccccc1)CC2` [Compound S-1, phenyl 2-(6-chloropyridin-3-yl)-4-(2-methoxyethoxy)-7,8-dihydropyrido[4,3-d]pyrimidine-6(5H)-carboxylate], the Ki amounted to 16.8 nM.

For `COCCOc1nc(-c2ccc(Cl)nc2)nc2c1CN(C(=O)c1cnn3ccccc13)CC2` [Compound O-2, [2-(6-chloropyridin-3-yl)-4-(2-methoxyethoxy)-7,8-dihydropyrido[4,3-d]pyrimidin-6(5H)-yl](pyrazolo[1,5-a]pyridin-3-yl)methanone], the Ki was 0.93 nM.

For `COc1ccc2[nH]c(C(=O)N3CCc4nc(-c5cccnc5)nc(OC(C)C)c4C3)cc2n1` [Compound 1-20, (5-methoxy-1H-pyrrolo[3,2-b]pyridin-2-yl)[4-(propan-2-yloxy)-2-(pyridin-3-yl)-7,8-dihydropyrido[4,3-d]pyrimidin-6(5H)-yl]methanone], the Ki turned out to be 0.8 nM.

In the case of `COC[C@H](C)Oc1nc(-c2ccc(Cl)nc2)nc2c1CN(C(=O)Nc1ccc(C)nc1)CC2` [Compound P-5, 2-(6-chloropyridin-3-yl)-4-{[(2S)-1-methoxypropan-2-yl]oxy}-N-(6-methylpyridin-3-yl)-7,8-dihydropyrido[4,3-d]pyrimidine-6(5H)-carboxamide], the Ki came to 0.92 nM.

As for `Cc1ccc(NC(=O)N2CCc3nc(N4CCCC4)nc(OC(C)C)c3C2)cn1` [Compound N-5, 4-isopropoxy-N-(6-methylpyridin-3-yl)-2-pyrrolidin-1-yl-7,8-dihydropyrido[4,3-d]pyrimidine-6(5H)-carboxamide], the Ki was 31.4 nM.

Consider `COc1cc(NC(=O)N2CCc3nc(-c4ccc(Cl)nc4)nc(O[C@@H]4CCOC4)c3C2)ccn1` [Compound 1-13, 2-(6-chloropyridin-3-yl)-N-(2-methoxypyridin-4-yl)-4-[(3R)-tetrahydrofuran-3-yloxy]-7,8-dihydropyrido[4,3-d]pyrimidine-6(5H)-carboxamide], for which the Ki worked out at 0.84 nM.

Take `COC[C@H](C)Oc1nc(-c2ccc(Cl)nc2)nc2c1CN(C(=O)c1ncn3ccccc13)CC2` [Compound T-1, [2-(6-chloropyridin-3-yl)-4-{[(2S)-1-methoxypropan-2-yl]oxy}-7,8-dihydropyrido[4,3-d]pyrimidin-6(5H)-yl](imidazo[1,5-a]pyridin-1-yl)methanone]: the Ki is 0.43 nM.

Regarding `COCCOc1nc(-c2ccc(Cl)nc2)nc2c1CN(C(=O)c1ncn3ccccc13)CC2` [Compound Q-2, [2-(6-chloropyridin-3-yl)-4-(2-methoxyethoxy)-7,8-dihydropyrido[4,3-d]pyrimidin-6(5H)-yl](imidazo[1,5-a]pyridin-1-yl)methanone], the Ki worked out at 0.99 nM.

For `COCCOc1nc(-c2ccc(C)nc2)nc2c1CN(C(=O)c1cnn3ccccc13)CC2` [Compound R-1, 4-(2-methoxyethoxy)-2-(6-methylpyridin-3-yl)-6-(pyrazolo[1,5-a]pyridin-3-ylcarbonyl)-5,6,7,8-tetrahydropyrido[4,3-d]pyrimidine], the Ki was 12.5 nM.

The values above are taken from patent US8492392B2, “Alkoxy tetrahydro-pyridopyrimidine PDE10 inhibitors” (Merck Sharp & Dohme Corp., priority 2009, dated 2013).
